Data on four compounds can be found in article PMC6543810, “Computational Identification of Novel Kir6 Channel Inhibitors” (Frontiers in Pharmacology, 2019).

SMILES strings stand for the structures. Read-outs that look alike come from different tables or passages of the source.

The target of one data set is T1, Kir6.2/SUR2A (Rattus norvegicus, UniProt P70673).
T1 construct: expressed in transfected cells; host or cells: HEK293T
As to the kind of experiment: Inside-out patch clamp on HEK293T excised membrane patches, WT Kir6.2/SUR2A. It counts as cell-based. The following applies: for IC50: inside-out patch, HEK293T; for Hill coefficient (outward): outward current. How it is done: (§1) Inside-out patch clamp electrophysiology was performed as described previously ([Harakalova et al., 2012]). In short, HEK293T cells were cultured on 10 mm glass coverslips and transfected with 0.16 μg of rat pCMV6-Kir6.2, 0.16 μg of rat pCMV6-SUR2A and 0.08 μg of pEGFP1 expression constructs. Measurements were performed using an AxoPatch 200B amplifier controlled by pClamp 9 software (Molecular Devices) at 22°C using a ramp protocol ranging from −100 to +100 mV in 5 s from a holding potential of −40 mV. The sampling rate was 50 kHz, filter frequency was 2 kHz. Bath solution contained 131 mM KCl, 1 mM EGTA, 7.2 mM K2HPO4, 2.8 mM KH2PO4, 1 mM MgCl2, and pH 7.20/KOH. The pipette solution contained 145 mM KCl, 1 mM CaCl2, 1 mM MgCl2, 5 mM HEPES, and pH 7.40/KOH. Pipette resistance was 1.5–3 MΩ. […] All measurements were performed within a timeframe of 8–10 min. Fractional block at −80 and +50 mV was determined by dividing current levels obtained with test compound containing solutions by current levels of control traces recorded in the absence of test compound. Statistics (unpaired Students t-tests (two tailed)) were performed using Kaleidagraph 4.0 software (Synergy Software, Reading, PA, United States).
(§2) Travoprost (MedChemExpress, Monmouth Junction, NJ, United States) was dissolved in DMSO at 10 mM. Test compounds were diluted in bath solution at the indicated concentrations before the start of measurements.
In general terms: Patch clamp records ionic current or voltage across a cell membrane.

A further data set addresses T2, Kir6.2 C166S/SUR2A (Rattus norvegicus, UniProt P70673, C166S).
T2 construct: expressed in transfected cells; host or cells: HEK293T
As to the kind of experiment: Inside-out patch clamp, Cantú mutant C166S Kir6.2 with SUR2A. To be noted: C166S Kir6.2 (homolog of Kir6.1 C176S)/SUR2A, outward current. Format: cell-based. How it is done:
as §1, §2

The next data set addresses T3, Kir6.2/SUR2A S1020P (Rattus norvegicus, UniProt P70673).
T3 construct: expressed in transfected cells; host or cells: HEK293T
As to the kind of experiment: Inside-out patch clamp, Cantú mutant S1020P SUR2A with Kir6.2. Format: cell-based. The following applies: S1020P SUR2A/Kir6.2, outward current. How it is done:
as §1, §2

Data set [1] relates to Kir6.2/SURx (pancreatic and heart) channels. The arrangement: method as in Yu et al., 2012. The following applies: ref Yu et al., 2012; cited from earlier work.
In a further data set the test system is vascular Kir6.1/SUR2B. The arrangement: method as in Yu et al., 2011. The following applies: ref Yu et al., 2011; cited from earlier work.
On the set-up of data set [2]: method as in Cox et al., 2000. To be noted: used to treat type II diabetes mellitus; ref Cox et al., 2000; cited from earlier work.
Another data set deals with Kir1.1. The arrangement: method as in Yu et al. (2012). To be noted: ref Yu et al. (2012); cited from earlier work.
The test system of a further data set is Kir2.1. On the set-up: method as in Yu et al. (2012). To be noted: ref Yu et al. (2012); cited from earlier work.
In a further data set the test system is Kir4.1. On the set-up: method as in Yu et al. (2012). To be noted: ref Yu et al. (2012); cited from earlier work.
Setting [3] is: outward current component (+50 mV), mean ± SEM, read-out: IC50 outward.

T1 sequence (P70673 whole entry): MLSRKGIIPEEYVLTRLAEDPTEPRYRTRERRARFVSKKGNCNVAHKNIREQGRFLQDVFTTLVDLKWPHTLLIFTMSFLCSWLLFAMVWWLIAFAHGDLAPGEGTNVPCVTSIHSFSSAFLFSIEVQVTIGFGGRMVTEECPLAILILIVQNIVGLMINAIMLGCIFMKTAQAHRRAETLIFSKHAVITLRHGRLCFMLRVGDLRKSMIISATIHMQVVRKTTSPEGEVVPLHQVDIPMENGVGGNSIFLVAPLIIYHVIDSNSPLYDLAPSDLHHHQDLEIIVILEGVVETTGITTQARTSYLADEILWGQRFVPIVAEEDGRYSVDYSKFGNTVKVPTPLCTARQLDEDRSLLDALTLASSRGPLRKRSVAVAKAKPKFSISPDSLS
T1 sequence (Q63563 whole entry partner): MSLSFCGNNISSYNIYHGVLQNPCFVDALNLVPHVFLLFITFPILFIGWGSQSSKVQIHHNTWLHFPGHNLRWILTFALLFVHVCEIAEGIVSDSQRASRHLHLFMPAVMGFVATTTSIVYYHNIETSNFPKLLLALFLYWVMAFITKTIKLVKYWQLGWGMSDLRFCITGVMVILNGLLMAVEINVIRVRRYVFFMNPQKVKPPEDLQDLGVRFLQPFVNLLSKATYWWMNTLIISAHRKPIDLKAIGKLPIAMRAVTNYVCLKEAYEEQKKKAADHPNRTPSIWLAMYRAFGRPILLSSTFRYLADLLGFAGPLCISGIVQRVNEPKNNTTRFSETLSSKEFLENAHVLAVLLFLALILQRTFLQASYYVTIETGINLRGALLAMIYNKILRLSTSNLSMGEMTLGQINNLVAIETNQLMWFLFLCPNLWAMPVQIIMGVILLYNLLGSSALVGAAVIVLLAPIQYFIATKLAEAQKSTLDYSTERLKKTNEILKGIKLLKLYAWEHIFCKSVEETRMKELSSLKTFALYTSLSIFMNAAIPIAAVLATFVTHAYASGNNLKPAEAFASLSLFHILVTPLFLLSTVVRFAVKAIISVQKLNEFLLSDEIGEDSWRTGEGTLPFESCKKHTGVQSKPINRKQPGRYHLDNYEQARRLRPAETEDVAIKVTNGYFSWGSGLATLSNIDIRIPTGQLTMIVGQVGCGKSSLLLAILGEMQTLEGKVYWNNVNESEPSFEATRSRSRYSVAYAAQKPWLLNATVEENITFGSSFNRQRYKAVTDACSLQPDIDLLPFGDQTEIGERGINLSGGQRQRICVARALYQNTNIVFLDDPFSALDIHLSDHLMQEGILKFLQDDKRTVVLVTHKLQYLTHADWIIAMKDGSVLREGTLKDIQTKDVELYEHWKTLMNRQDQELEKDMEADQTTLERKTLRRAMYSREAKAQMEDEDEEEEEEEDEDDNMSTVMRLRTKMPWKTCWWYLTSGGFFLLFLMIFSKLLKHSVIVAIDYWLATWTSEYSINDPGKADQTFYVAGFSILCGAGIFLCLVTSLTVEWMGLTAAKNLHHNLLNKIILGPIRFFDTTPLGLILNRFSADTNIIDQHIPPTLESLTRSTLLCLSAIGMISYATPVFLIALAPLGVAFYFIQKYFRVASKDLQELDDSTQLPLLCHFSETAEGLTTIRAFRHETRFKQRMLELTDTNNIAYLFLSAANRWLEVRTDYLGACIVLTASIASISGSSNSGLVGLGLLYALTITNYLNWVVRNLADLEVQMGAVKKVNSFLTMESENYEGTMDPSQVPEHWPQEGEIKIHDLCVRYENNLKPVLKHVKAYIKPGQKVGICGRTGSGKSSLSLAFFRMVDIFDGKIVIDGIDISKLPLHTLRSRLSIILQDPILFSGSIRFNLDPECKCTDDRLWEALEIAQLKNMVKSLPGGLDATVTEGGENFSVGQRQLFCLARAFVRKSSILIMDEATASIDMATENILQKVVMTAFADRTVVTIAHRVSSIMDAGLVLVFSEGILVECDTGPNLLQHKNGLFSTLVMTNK
T3 sequence (P70673 whole entry, stated change not applied): as the sequence (P70673 whole entry) above
T3 sequence (Q63563 whole entry S1016P partner): as the sequence (Q63563 whole entry partner) above, with S1016P counted along it
T2 sequence (P70673 whole entry C166S): as the sequence (P70673 whole entry) above, with C166S counted along it
T2 sequence (Q63563 whole entry partner): as the sequence (Q63563 whole entry partner) above

One may read the IC50 as the point on the concentration scale where inhibition reaches its midpoint. Consider `CC(NCCc1ccc(O)cc1)C(O)c1ccc(O)cc1` (centres unmarked) [Ritodrine], for which the 50% inhibitory concentration (IC50) stood at 7.09 ± 0.45 µM on Kir6.2/SUR2A (setting [3]), 10.4 ± 0.87 µM at Kir6.2 C166S/SUR2A and 6.77 ± 0.49 µM at Kir6.2/SUR2A S1020P. In addition, at Kir6.2/SUR2A (Hill equation fit), the “Hill coefficient (outward)” value is reported as 0.86.

Regarding `CC(C)NCC(O)COc1ccc(CCOCC2CC2)cc1` (centres unmarked) [Betaxolol], the half-maximal inhibitory concentration (IC50) at Kir6.2/SUR2A (setting [3]) was 22.1 ± 2.47 µM; at Kir6.2 C166S/SUR2A, 41.2 ± 2.89 µM; at Kir6.2/SUR2A S1020P it was 29.5 ± 3.78 µM. Also, the “Hill coefficient (outward)” value at Kir6.2/SUR2A (Hill equation fit) came out at 0.89.

With `CN(CCOc1ccc(CC2SC(=O)NC2=O)cc1)c1ccccn1` (centres unmarked) [RSG, 5-[[4-[2-[methyl(pyridin-2-yl)amino]ethoxy]phenyl]methyl]-1,3-thiazolidine-2,4-dione], the IC50 on Kir6.2/SUR2A (setting [3]) was 26 ± 1.49 µM; on Kir6.2 C166S/SUR2A it was 34.9 ± 2.34 µM; at Kir6.2/SUR2A S1020P it was 25.4 ± 4.24 µM; in [1], 45 µM; with vascular Kir6.1/SUR2B, 10 µM. Moreover, in [2], the plasma concentrations was roughly 3000 nM. Besides, the “sensitivity of channel to drug” value in the data set with Kir1.1, with Kir2.1 and with Kir4.1 was “insensitive” each time.

In the case of `CC(C)OC(=O)CCC/C=C\C[C@@H]1[C@@H](/C=C/[C@@H](O)COc2cccc(C(F)(F)F)c2)[C@H](O)C[C@@H]1O` [Travoprost], the IC50 on Kir6.2/SUR2A (inward current component (-80 mV), read-out: IC50 inward) is 2.3 ± 1.26 µM; at Kir6.2/SUR2A (setting [3]) it was 2.46 ± 0.52 µM; on Kir6.2 C166S/SUR2A, 14.8 ± 2.16 µM; on Kir6.2/SUR2A S1020P it was 11 ± 1.28 µM. Also, the “Hill coefficient (inward)” value on Kir6.2/SUR2A (inward current, Hill equation fit) turned out to be 0.65. Further, the “Hill coefficient (outward)” value at Kir6.2/SUR2A (Hill equation fit) is recorded as 0.71.
